Values quoted from earlier work, collected in patent publication US4127519A, “Octadecapeptides, intermediates therefor, and compositions and methods employing said octadecapeptides” (priority 1977, dated 1978).

What was measured:
[1] = tested on: brain opiate receptor sites
[2] = injected directly into the brain of the rat

Q: For “H-Tyr-Gly-Gly-Phe-Met-OH [methionine enkephalin]”, which “binding to partially purified brain opiate receptor sites” value [1] is on record?
A: The value was “binds stereo-specifically”.

Q: What about the analgesic activity [2] of the same substance?
A: The analgesic activity was “weak analgesic agent of short duration”.
